Assay results: patent publication US20050222267A1, “Solution based methacholine formulations” (priority 2004, published 2005)
Like-named read-outs stand apart in the source and are kept apart here.

What was measured:
[1] = cited from earlier work
[2] = cited from earlier work; remark: listed apart in the source
[3] = Terminal steam sterilisation (Example 3): recovery (product potency); assay type: physicochemical; conditions: 20 L batches at 16 mg/ml and 0.25 mg/ml without buffer; conventional terminal steam sterilisation
Experimental: The influence of terminal steam sterilisation on the chemical properties of the methacholine drug product was determined, specifically in terms of the influence of heat on the product potency and impurity levels within the formulations.
[…] A formulation having a relatively high concentration of methacholine was used so that any changes in chemical properties were readily apparent.
The procedure described below was used for performing the high pressure liquid chromatography (HPLC) assay analysis of methacholine chloride in solution.

SMILES: CC(=O)OC(C)C[N+](C)(C)C (centres unmarked) [methacholine, methacholine chloride]
- pH of the saline solution ([1]; methacholine 0.39 mg/ml in saline): 3.9
- pH of the saline solution ([1]; methacholine 50 mg/ml in saline): 2.7
- decomposition by hydrolysis ([2]; pH of the solution above 6): rapidly decompose
- time stable in solution ([2]; solutions of >0.3 mg/ml, stored at 4° C.): at least five
- stability to terminal steam sterilisation [3]: did not withstand the high temperatures
